Measurements published in patent EP4516107A1, “CHITOSAN AND ORGANIC ACID HAVING A PKA OF 4 OR MORE, OR A SALT THEREOF IN BAKERY PRODUCTS” (Mauri Technology B.V., priority 2023, dated 2025).

Legend:
[1] = cited from earlier work
[2] = system: P. paneum; experiment: accelerated shelf-life testing (ASLT): time of appearance (TOA) and growth pattern of P. paneum on inoculated breadcrumbs; type: cell-based, Penicillium paneum; conditions: CalPro 0.3% FWB; tin bread crumb, ±500 spores; Figure 1
Description: (§1) Breads were made by mixing the dough ingredients from Table 1. The wt.% for several ingredients are given based on flour weight (Flour Weight Based, FWB). For the prepared recipes the difference with total dry weight is insubstantial. The following breads were prepared: a control without any preservatives, a reference containing 0.3% flour weight based (FWB) calcium propionate (CalPro), and a bread containing 1% chitosan (KitoZyme, Belgium) with number average MW of 15 kDa and degree of deacetylation (DDA) of 70%. The chitosan sample was obtained from cell wall of A. niger (KitoZyme, Belgium). Ingredients were mixed using a spiral mixer for 10 minutes. Afterwards the dough for each trial was divided into three pieces of 520 g, rounded manually, and placed into bread tins. The dough pieces were placed in a proofing cabinet to rise at 40 °C and 80% relative humidity until they reach similar height (fermentation time between 60-70 min). The breads were baked for 22 minutes in a deck oven at 260 (bottom) and 230 (top) °C. [Table 1] Bread recipes
(§2) Following baking, the breads were cooled in a HEPA-filtered chamber for 90 min. One bread was used for pH measurement and two breads were subjected to ASLT.
To perform ASLT, the remaining two breads were sliced to 13 mm slices. […]

[3] = system: A. niger; experiment: accelerated shelf-life testing (ASLT): time of appearance (TOA) of A. niger on inoculated breadcrumbs; type: cell-based, Aspergillus niger
Description: as §1, §2
To perform ASLT, the remaining two breads were sliced to 13 mm slices. The crumb (inner part of breads) of three random slices from each bread were cut out using a cookie cutter (3.2 cm diameter) and placed in sterile 6-well plates (2x breads x 3 slices). Two 6-well plates were prepared per bread type. Each bread piece in a 6-well plate was inoculated with 3 aliquots of ±500 spores ([…]) of either A. niger or P. paneum. Therefore, 18 spots of each mould were inoculated per trial (6 bread piece × 3 aliquots). Freeze-dried spores were used in all experiments. The inoculated breads incubated at room temperature of around 21 °C until visible mould appearance. The appearance of the moulds was imaged by taking photographs. The images were inspected visually, and the TOA was defined as mould appearance in hours after mould inoculation. […]

Row | Compound | pKa [1] | increased TOA of P. paneum compared to control bread without preservatives [2] [%] | effectiveness against A. niger, CalPro compared to chitosan ([3]; CalPro 0.3% FWB vs chitosan 1% FWB) | increased TOA of A. niger compared to control bread without preservatives ([3]; CalPro 0.3% FWB, tin bread crumb, ±500 spores, Figure 1A) [%] | increase in TOA of A. niger compared to control without preservative ([3]; CalPro alone 0.3% FWB, Figure 2 A-B)
1 | C/C=C/C=C/C(=O)O [sorbic acid] | about 4.76 | – | – | – | –
2 | CC(O)C(=O)O (stereo not drawn) [lactic acid] | about 3.85 | – | – | – | –
3 | CCC(=O)[O-].CCC(=O)[O-].[Ca+2] [CalPro, calcium propionate] | – | 17 | more effective against A. niger | 80 | approximately 50%
